In ChEMBL document CHEMBL3244372, “Cholecystokinin (pancreozymin). 3. Synthesis and properties of an analogue of the C-terminal heptapeptide with serine sulfate replacing tyrosine sulfate” (1977) one finds Activity data, which are given here for four compounds.

Structures are written as SMILES. The source made the active and inactive calls. The calls are words filed in the database; no cut-off is given here. Square brackets hold non-standard residues; d marks the D form. Peptide text beside a SMILES is read from it. sY = N[C@@H](Cc1ccc(OS(=O)(=O)O)cc1)C(=O)O

Experiment [1] is filed under the species Cavia porcellus. The experiment can be described thus: Increase in [Ca2+] efflux from guinea pig pancreatic acinar cells measured for 5 mins relative to control. The class given is functional.
For experiment [2], the species on record is Cavia porcellus. The experiment in a line: Increase in [Ca2+] efflux from guinea pig pancreatic acinar cells at 3 x 10^-11 M measured for 5 mins relative to control. The class given is functional.
Experiment [3] is described as follows: Increase in [Ca2+] efflux from guinea pig pancreatic acinar cells at 10^-8 M assessed per minute relative to control. The class given is functional, Cavia porcellus.

Consider `CSCC[C@H](NC(=O)[C@H](Cc1c[nH]c2ccccc12)NC(=O)CNC(=O)[C@H](CCSC)NC(=O)[C@@H](N)Cc1ccc(O)cc1)C(=O)N[C@@H](CC(=O)O)C(=O)N[C@@H](Cc1ccccc1)C(N)=O` (H-YMGWMDF-NH2), for which the outcome in the experiment listed under Cavia porcellus [1] was Active.
Same read-out and setting: under `CSCC[C@H](NC(=O)[C@H](Cc1c[nH]c2ccccc12)NC(=O)CNC(=O)[C@H](CCSC)NC(=O)[C@@H](N)CO)C(=O)N[C@@H](CC(=O)O)C(=O)N[C@@H](Cc1ccccc1)C(N)=O` (H-SMGWMDF-NH2) stands “Active”.
On the same count and under the same terms, under `CSCC[C@H](NC(=O)[C@H](Cc1c[nH]c2ccccc12)NC(=O)CNC(=O)[C@H](CCSC)NC(=O)[C@@H](N)COS(=O)(=O)O)C(=O)N[C@@H](CC(=O)O)C(=O)N[C@@H](Cc1ccccc1)C(N)=O` stands “Active”.
Consider `CSCC[C@H](NC(=O)[C@H](Cc1c[nH]c2ccccc12)NC(=O)CNC(=O)[C@H](CCSC)NC(=O)[C@@H](N)Cc1ccc(OS(=O)(=O)O)cc1)C(=O)N[C@@H](CC(=O)O)C(=O)N[C@@H](Cc1ccccc1)C(N)=O` (H-[sY]MGWMDF-NH2), for which the outcome in the experiment filed under Cavia porcellus [2] and in the experiment listed under Cavia porcellus [1] was Active. The compound further displayed an Activity in experiment [3] of 26.2%.
